Assay results as given in patent US10138466B2, “Compositions and methods for differentiating stem cells into cell populations comprising beta-like cells” (REGENERATIVE MEDICAL SOLUTIONS, INC., priority 2014, dated 2018).

What was measured:
[1] = system: differentiated cells; assay: GSIS test of differentiated cells with Warfarin in stage 6 medium; format: cell-based, human
Procedure: 300 ng/ml Noggin was added in step 4 and 10 uM ALK5i was added in step 5. In the final step, cells were transferred from transwell to suspension culture (in low attachment wells or flasks). […]
Warfarin was added at stage 6.

[2] = system: iPS derived beta-cell clusters; assay: Response of iPS derived beta-cell clusters to tolbutamide; format: cell-based, human
Procedure: Experiments were conducted to determine the effect of shipping induced islet cells on Transwells. Cells were differentiated according to the protocol described in Example 15. (ProgenMixIII). Total differentiation time was 27 days and the final product was islet-like-clusters (ILCs) in suspension. On the day of shipment, ILCs were counted and divided into individual mouse dosages: one mouse dosage per bottle. Cells were sent by FedEx overnight at 4° C. using cold packs. Leftover ILCs from shipment were used as controls.
Results are shown in FIGS. 36-42. iPS derived beta-cell clusters responded to glucose challenge and tolbutamide, a KATP channel closer.

[3] = system: T cell; details: high concentrations (1 μg/mL), murine models of T1D; cited from earlier work
[4] = system: NKX6.1 expression; assay: EGF at stage 5 of differentiation, NKX6.1 expression; format: cell-based, human; details: Ten to fifty ng/ml EGF at stage 5
Procedure: EGF was added at stage 5.

CC(=O)CC(c1ccccc1)c1c(O)c2ccccc2oc1=O (stereo not drawn) [Warfarin]
SI (stimulation index) in GSIS test ([1]; 2 uM Warfarin in stage 6): 3.0 | SI (stimulation index) in GSIS test ([1]; 5 uM Warfarin in stage 6): 3.8 | stimulation index in GSIS test ([1]; warfarin in the final media): significantly increased

CCCCNC(=O)NS(=O)(=O)c1ccc(C)cc1 [tolbutamide]
response to tolbutamide, a KATP channel closer [2]: responded

CXCL12: immune modulating chemokine, T-cell chemorepellent
action on T cells [3]: T cell chemorepellent

EGF: growth factor added at stage 5 of differentiation
NKX6.1 expression at end [4]: enhance NKX6.1 expression
